Reference: patent US10238689B2, “Methods for combating bacterial infections by killing persister cells with mitomycin C and/or cisplatin” (THE PENN STATE RESEARCH FOUNDATION, priority 2015, dated 2019)
≈ marks a conversion by molar mass, not a printed value. Entries after “also recorded” stand apart in the source; their conditions may differ.

Columns and labels:
P. aeruginosa PA14 [1] = test: Persister cell assay of pathogens (stationary phase), cisplatin vs MMC; assay type: cell-based, Pseudomonas aeruginosa; conditions: M9-glucose, 3 h
Procedure: For the persister cell assay of the pathogens, stationary-phase cells were used. Cultures of EHEC, P. aeruginosa, and S. aureus were prepared by a 1:1000 dilution of overnight grown cultures (LB medium for EHEC and P. aeruginosa, TSB for S. aureus) into fresh buffered LB medium for EHEC, M9-glucose for P. aeruginosa, and TSB for S. aureus and re-growing the cells to a turbidity of 3 to 4 at 600 nm for EHEC and S. aureus and growing for 24 h for P. aeruginosa. […]
NaClO4 (0.1M) was used as a solvent control. The viability of the cells was determined before and after cisplatin and MMC treatment. At least two independent cultures of each strain were used in each experiment.

pCA24N DNA = test: In vitro crosslinking of DNA and denaturing agarose gel electrophoresis; assay type: biochemical; conditions: cisplatin 200 μM 1.5 h and 3.5 h; MMC 500 μg/mL; denaturing gel
Procedure: FIG. 10 provides data obtained from analysis of in vitro crosslinking of DNA with cisplatin and denaturing agarose gel electrophoresis. To produce the results shown in FIG. 10, pCA24N DNA (4518 bp) was in vitro crosslinked with cisplatin following a standard protocol. In brief, 2.2 μg of pCA24N DNA was linearized by HindIII digestion and cleaned using Wizard-SV gel and PCR clean-up system (Promega, Madison, Wis., USA). Linearized pCA24N was then treated with 200 μM (60 μg/mL) of cisplatin (Sigma-Aldrich, St. Louis, Mo., USA) for 1.5 h and 3.5 h at 37° C. The same amount of pCA24N DNA was also treated with an equivalent amount of 0.1M NaClO4 (solvent control for cisplatin) for 3.5 h at 37° C. Mitomycin C (MMC) was used as a positive control to compare types of crosslinking between cisplatin and MMC. For MMC, the same amount (2.2 μg) of pCA24N DNA was crosslinked essentially as in Example 1. In brief, linearized pCA24N DNA was treated with 500 μg/mL (1.5 mM) MMC or without MMC in 0.2 mM EDTA, 50 mM NaCl, and 5 mM Tris (pH 7.6) with Na2S2O4 added six times at 10 min intervals to reach a final concentration of 2.25 mM (1.5×molarity of MMC). The crosslinking reaction with MMC was performed anaerobically on ice and the reaction was stopped by exposure to air. […]

P. aeruginosa PA14 [2] = test: Minimum inhibitory concentration (MIC) assay; assay type: cell-based, Pseudomonas aeruginosa
Procedure: Minimum inhibitory concentration (MIC) assay. To determine the MICs of cisplatin for E. coli K-12, enterohemorrhagic E. coli (EHEC), S. aureus, and P. aeruginosa (PAO1 and PA14), freshly inoculated cultures (at least two independent cultures) in buffered LB (TSB for S. aureus) were incubated for 16 h with varying concentrations of cisplatin, and growth inhibition was assayed by the lack of turbidity.

[3] = tested on: P. aeruginosa PA14 and ΔtpbA biofilm cells; test: Persister cell killing assay (biofilm cells); assay type: cell-based, Pseudomonas aeruginosa; conditions: 3 h, 5×MIC (cisplatin 250 μg/mL, MMC 10 μg/mL), limit of detection 100 cells/mL
Procedure: Persister cell killing assay (biofilm cells). […] Biofilm formation was assayed using the crystal violet staining method (Fletcher 1977) and was normalized by planktonic cell growth (turbidity at 620 nm) to account for any differences in growth rates. Data were averaged from 6 replicate wells using at least two independent cultures. […] NaClO4 (0.1M) was used as a solvent control for cisplatin. Cell viability in biofilms was assayed before and after the MMC and cisplatin treatments by removing supernatants (planktonic cells) from each well carefully, resuspending the biofilm in normal saline, and sonicating twice at 3W for 10 sec (Ueda and Wood 2009) to break apart the biofilm cells (due to the aggregative nature of P. aeruginosa ΔtpbA cells). Suspensions from multiple wells were combined to get an averaged sample. Then the cell suspensions were serially diluted in normal saline for a drop assay to check cell viability.

[4] = tested on: E. coli K-12 persister cells; test: Rifampicin-induced persister cell killing assay; assay type: cell-based, Escherichia coli
Procedure: Rifampicin-pretreatment was used to convert nearly all the E. coli exponentially-growing cells to persister cells. In brief, overnight cultures (16 h) of E. coli BW25113 were diluted 1:1000 in buffered LB and grown to a turbidity of 0.8 at 600 nm (250 mL flask, 250 rpm). Cultures were treated with rifampicin (100 μg/mL) for 30 min (250 mL flask, 250 rpm), centrifuged, and resuspended in fresh medium to remove the rifampicin. A 1 mL culture was used for a drop assay to check cell viability at 0 h. […] After 3 h, 1 mL of culture was centrifuged at 10,000 rpm for 3 min, the supernatant was discarded, the cells were resuspended in 1 mL of normal saline, and the cell suspension was serially diluted for a drop assay to check cell viability. In addition, 1 mL samples were centrifuged, and the cell pellet resuspended in 150 μL of normal saline and spread on LB agar.
To test whether lower concentrations than 500 μg/mL of cisplatin generate resistant mutants, 5 mL cultures of rifampicin-induced persister cells were treated with 200 μg/mL of cisplatin and cells were enumerated by the drop assay using LB agar, LB agar with 200 μg/mL of cisplatin (LBCP200), and LB agar with 500 μg/mL of cisplatin (LBCP500).

[5] = 1×MIC (cisplatin 50 μg/mL, MMC 2 μg/mL)
[6] = 5×MIC (cisplatin 250 μg/mL, MMC 10 μg/mL)
[7] = treatment with 2×MIC (200 μg/mL) of cisplatin

SMILES | survival (P. aeruginosa PA14 [1]; [5]) | survival (P. aeruginosa PA14 [1]; [6]) | type of DNA crosslinking in vitro (pCA24N DNA) | MIC (1×MIC) (P. aeruginosa PA14 [2]) | cell viability of biofilm cells ([3]; PA14 biofilm) | cell viability of biofilm cells ([3]; ΔtpbA biofilm) | colonies from 1 mL samples ([4]; after the 3 h cisplatin treatment (500 μg/mL)) | number of persister cells after treatment (drop assay) ([4]; cisplatin 500 μg/mL, 3 h, limit of detection) | colonies on LBCP500 agar plates (spontaneous resistant mutants) [4, 7] | survivors on LBCP200 agar plates [4, 7]
CO[C@@]12[C@H](COC(N)=O)C3=C(C(=O)C(C)=C(N)C3=O)N1C[C@@H]1N[C@@H]12 [MMC, mitomycin C] | 5±2% | 0.0056±0.0004% | crosslinks inter-strand DNA | 2 µg/mL (≈ 5.98 µM) | could not eradicate | could not eradicate | – | – | – | –
N.N.[Cl][Pt][Cl] [cisplatin, cis-diamminodichloroplatinum(II)] | completely eradicated | eradicated | crosslinks the same strand of DNA; also recorded: crosslinks intra-strand DNA | 50 µg/mL | completely eradicated | completely eradicated | 37±5 colonies | < 100 cells/mL | no colonies were found | 0.08%
